We go through 2 molecules from paper PMC7155755, “Binding of the Human 14-3-3 Isoforms to Distinct Sites in the Leucine-Rich Repeat Kinase 2” (Frontiers in Neuroscience, 2020).

Square brackets hold non-standard residues; d marks the D form. Ends that are not written are not given here. Peptide text beside a SMILES is read from it. fluorescein = N-terminal fluorescein label; pT = C[C@@H](OP(=O)(O)O)[C@H](N)C(=O)O; pS = N[C@@H](COP(=O)(O)O)C(=O)O Some results are limits rather than exact numbers.

Assay [1] has as its target T1, human 14-3-3 isoform ϵ (Homo sapiens, UniProt P62258).
T1 construct: MBP (cleaved yes); made in house; host or cells: E. coli BL21DE3
T1 sequence (P62258 1-255): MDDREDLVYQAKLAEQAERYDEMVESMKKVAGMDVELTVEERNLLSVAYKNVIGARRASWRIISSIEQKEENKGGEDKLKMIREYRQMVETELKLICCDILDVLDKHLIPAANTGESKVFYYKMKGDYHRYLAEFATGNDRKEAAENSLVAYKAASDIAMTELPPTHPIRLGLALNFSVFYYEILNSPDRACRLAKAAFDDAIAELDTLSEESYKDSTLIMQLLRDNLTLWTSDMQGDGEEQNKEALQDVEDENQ
In words: Fluorescence polarization (FP) direct binding assay. As to conditions: fluorescein-labeled peptide 1 nM, 20 mM MOPS pH 7, 150 mM NaCl, 0.005% CHAPS, bound given in μM, read-out: Binding affinity (KD) toward 14-3-3 isoform ϵ. An outline of the steps:
(§1)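 Untagged human 14-3-3 isoforms (MBP removed) titrated from ≥5 μM down to picomolar against 1 nM fluorescein-labeled LRRK2-derived peptides, phosphorylated or not, in 20 mM MOPS pH 7, 150 mM NaCl, 0.005% CHAPS. KD from sigmoidal fit of FP (mPol) versus log protein concentration; duplicates, ≥2 independent replicates.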
In general terms: Fluorescence polarisation rises when a labelled molecule tumbles more slowly, as on binding a larger partner.

Assay [2] concerns the target T2, human 14-3-3 isoform β (Homo sapiens, UniProt P31946).
T2 construct: MBP (cleaved yes); made in house; host or cells: E. coli BL21DE3
The description is as above. The note with it: fluorescein-labeled peptide 1 nM, 20 mM MOPS pH 7, 150 mM NaCl, 0.005% CHAPS, at least three independent measurements, read-out: Binding affinity (KD) toward 14-3-3 isoform β. An outline of the steps: as §1

In assay [3] the target is T3, human 14-3-3 isoform ζ (Homo sapiens, UniProt P63104).
T3 construct: MBP (cleaved yes); made in house; host or cells: E. coli BL21DE3
The assay is described as above. The note with it: fluorescein-labeled peptide 1 nM, 20 mM MOPS pH 7, 150 mM NaCl, 0.005% CHAPS, at least three independent measurements, read-out: Binding affinity (KD) toward 14-3-3 isoform ζ. An outline of the steps: as §1

Assay [4] concerns the target T4, human 14-3-3 isoform θ (Homo sapiens, UniProt P27348).
T4 construct: MBP (cleaved yes); made in house; host or cells: E. coli BL21DE3
Described as above. The note with it: fluorescein-labeled peptide 1 nM, 20 mM MOPS pH 7, 150 mM NaCl, 0.005% CHAPS, at least three independent measurements, read-out: Binding affinity (KD) toward 14-3-3 isoform θ. Summed up:
as §1

For assay [5], the target named is T5, human 14-3-3 isoform η (Homo sapiens, UniProt Q04917).
T5 construct: MBP (cleaved yes); made in house; host or cells: E. coli BL21DE3
The assay is described as above. The note with it: fluorescein-labeled peptide 1 nM, 20 mM MOPS pH 7, 150 mM NaCl, 0.005% CHAPS, at least three independent measurements, read-out: Binding affinity (KD) toward 14-3-3 isoform η. An outline of the steps: as §1

Assay [6] deals with T6, human 14-3-3 isoform σ (Homo sapiens, UniProt P31947).
T6 construct: MBP (cleaved yes); made in house; host or cells: E. coli BL21DE3
T6 sequence (P31947 1-248): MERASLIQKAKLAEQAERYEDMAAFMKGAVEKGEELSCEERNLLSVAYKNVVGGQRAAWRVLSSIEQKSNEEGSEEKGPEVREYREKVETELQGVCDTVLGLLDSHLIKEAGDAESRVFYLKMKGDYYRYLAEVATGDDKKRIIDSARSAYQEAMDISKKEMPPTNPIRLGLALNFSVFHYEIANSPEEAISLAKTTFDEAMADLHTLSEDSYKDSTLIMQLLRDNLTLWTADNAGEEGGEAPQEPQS
The description is as above. As to conditions: fluorescein-labeled peptide 1 nM, 20 mM MOPS pH 7, 150 mM NaCl, 0.005% CHAPS, at least three independent measurements, read-out: Binding affinity (KD) toward 14-3-3 isoform σ. Summed up:
as §1

The target of assay [7] is T7, human 14-3-3γ (Homo sapiens, UniProt P61981).
T7 construct: MBP (cleaved yes); made in house; host or cells: E. coli BL21DE3
T7 sequence (P61981 1-247): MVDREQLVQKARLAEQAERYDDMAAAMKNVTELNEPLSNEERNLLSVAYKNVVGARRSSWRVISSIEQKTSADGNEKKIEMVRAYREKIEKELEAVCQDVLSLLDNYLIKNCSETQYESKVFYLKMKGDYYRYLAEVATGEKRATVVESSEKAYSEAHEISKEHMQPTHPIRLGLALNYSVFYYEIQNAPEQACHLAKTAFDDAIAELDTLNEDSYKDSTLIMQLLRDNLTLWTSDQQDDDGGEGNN
The assay is described as above. As to conditions: fluorescein-labeled peptide 1 nM, 20 mM MOPS pH 7, 150 mM NaCl, 0.005% CHAPS, at least three independent measurements, read-out: Binding affinity (KD) toward 14-3-3 isoform γ. Summed up: as §1

Assay [8] concerns the target T8, human 14-3-3 isoform η (recombinant, MBP tag removed) (human, UniProt Q04917 1-246).
T8 construct: 14-3-3 eta, human; Expressed from pMAL2CX plasmids; also called 14-3-3η; source: E. coli BL21DE3, purified (maltose-agarose, Factor Xa, anion exchange)
T8 sequence (looked up): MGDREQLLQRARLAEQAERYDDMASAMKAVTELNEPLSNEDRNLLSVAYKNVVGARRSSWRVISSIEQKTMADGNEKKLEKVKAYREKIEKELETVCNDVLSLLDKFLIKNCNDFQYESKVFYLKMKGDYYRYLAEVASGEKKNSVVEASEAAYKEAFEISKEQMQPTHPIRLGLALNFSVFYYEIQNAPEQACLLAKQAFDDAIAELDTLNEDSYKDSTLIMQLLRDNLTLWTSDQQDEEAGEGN
Briefly: fluorescence polarisation; direct binding; dilution series of 14-3-3 isoform (at least 5 μM down to picomolar) mixed with 1 nM fluorescein-labelled peptide; 20 mM MOPS pH 7, 150 mM NaCl, 0.005% CHAPS; 384-well plates. The note with it: both partners purified.

Assay [9] addresses T9, human 14-3-3 isoform β (recombinant, MBP tag removed) (human, UniProt P31946 1-246).
T9 construct: 14-3-3 beta, human; Expressed from pMAL2CX plasmids; also called 14-3-3β; source: E. coli BL21DE3, purified (maltose-agarose, Factor Xa, anion exchange)
T9 sequence (looked up): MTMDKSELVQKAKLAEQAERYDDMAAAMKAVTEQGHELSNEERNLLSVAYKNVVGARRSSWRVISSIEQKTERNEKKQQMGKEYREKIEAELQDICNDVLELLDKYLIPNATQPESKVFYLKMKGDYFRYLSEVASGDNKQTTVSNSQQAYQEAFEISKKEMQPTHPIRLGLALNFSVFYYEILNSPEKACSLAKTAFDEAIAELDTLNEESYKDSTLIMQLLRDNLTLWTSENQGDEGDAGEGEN
The description is as above. The note with it: both partners purified.

The target in assay [10] is T10, human 14-3-3 isoform θ (recombinant, MBP tag removed) (human, UniProt P27348 1-245).
T10 construct: 14-3-3 theta, human; Expressed from pMAL2CX plasmids; also called 14-3-3θ; source: E. coli BL21DE3, purified (maltose-agarose, Factor Xa, anion exchange)
T10 sequence (looked up): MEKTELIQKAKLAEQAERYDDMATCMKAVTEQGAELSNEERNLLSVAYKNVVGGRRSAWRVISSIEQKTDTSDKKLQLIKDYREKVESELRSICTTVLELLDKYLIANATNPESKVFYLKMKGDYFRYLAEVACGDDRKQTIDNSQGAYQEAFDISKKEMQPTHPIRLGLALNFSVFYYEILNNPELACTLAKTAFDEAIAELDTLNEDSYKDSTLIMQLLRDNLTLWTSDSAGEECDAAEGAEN
Described as above. As to conditions: both partners purified.

The target of assay [11] is T11, human 14-3-3 isoform σ (recombinant, MBP tag removed) (human, UniProt P31947 1-248).
T11 construct: 14-3-3 sigma, human; Expressed from pMAL2CX plasmids; also called 14-3-3σ; source: E. coli BL21DE3, purified (maltose-agarose, Factor Xa, anion exchange)
T11 sequence (looked up): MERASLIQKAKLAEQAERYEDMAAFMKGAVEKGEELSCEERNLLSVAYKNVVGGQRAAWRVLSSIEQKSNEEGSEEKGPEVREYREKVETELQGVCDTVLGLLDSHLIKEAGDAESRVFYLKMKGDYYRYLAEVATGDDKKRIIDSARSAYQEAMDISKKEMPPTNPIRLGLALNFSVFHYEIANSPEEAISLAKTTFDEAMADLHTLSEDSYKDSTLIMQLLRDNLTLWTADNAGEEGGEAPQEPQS
Described as above. As to conditions: both partners purified.

Assay [12] has as its target T12, human 14-3-3 isoform ε (recombinant, MBP tag removed) (human, UniProt P62258 1-255).
T12 construct: 14-3-3 epsilon, human; Expressed from pMAL2CX plasmids; also called 14-3-3ε; source: E. coli BL21DE3, purified (maltose-agarose, Factor Xa, anion exchange)
T12 sequence (looked up): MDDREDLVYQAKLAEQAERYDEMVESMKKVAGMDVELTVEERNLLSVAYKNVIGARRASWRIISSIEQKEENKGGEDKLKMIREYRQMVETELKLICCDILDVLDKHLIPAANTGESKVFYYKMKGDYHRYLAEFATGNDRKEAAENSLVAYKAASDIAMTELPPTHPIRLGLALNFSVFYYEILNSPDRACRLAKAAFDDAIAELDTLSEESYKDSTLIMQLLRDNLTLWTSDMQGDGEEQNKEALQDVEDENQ
The assay is described as above. The note with it: both partners purified.

For assay [13], the target named is T13, human 14-3-3 isoform ζ (recombinant, MBP tag removed) (human, UniProt P63104 1-245).
T13 construct: 14-3-3 zeta, human; Expressed from pMAL2CX plasmids; also called 14-3-3ζ; source: E. coli BL21DE3, purified (maltose-agarose, Factor Xa, anion exchange)
T13 sequence (looked up): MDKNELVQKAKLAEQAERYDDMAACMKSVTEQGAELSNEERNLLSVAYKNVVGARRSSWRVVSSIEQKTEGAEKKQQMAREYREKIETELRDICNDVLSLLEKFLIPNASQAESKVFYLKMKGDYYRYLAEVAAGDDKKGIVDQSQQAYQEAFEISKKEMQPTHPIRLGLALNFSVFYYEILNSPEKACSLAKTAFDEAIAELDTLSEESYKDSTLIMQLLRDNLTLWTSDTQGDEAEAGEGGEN
The description is as above. The note with it: both partners purified.

As for `CC[C@H](C)[C@H](NC(=O)[C@H](CC(N)=O)NC(=O)[C@H](Cc1ccccc1)NC(=O)[C@@H](N)CC(C)C)C(=O)N[C@@H](CCCCN)C(=O)N[C@@H](C)C(=O)N[C@@H](CCCNC(=N)N)C(=O)N[C@@H](C)C(=O)N[C@@H](CO)C(=O)N[C@@H](COP(=O)(O)O)C(=O)N[C@@H](CO)C(=O)N1CCC[C@H]1C(=O)N[C@H](C(=O)N[C@H](C(=O)N[C@@H](CC(C)C)C(=O)N[C@H](C(=O)NCC(=O)N[C@H](C(=O)O)[C@@H](C)O)C(C)C)[C@@H](C)CC)C(C)C` [pS1444] (H-LFNIKARAS[pS]SPVILVGT-OH), the Kd is more than 1 µM in assay [1]; 183 ± 25 nM in assay [2]; 476 ± 165 nM in assay [3]; 195 ± 42 nM in [4]; 85 ± 10 nM in [5]; 802 ± 261 nM in [6]. The dissociation constant Kd in assay [7] is 106 ± 4 nM.

B1: pT2524 (peptide)
peptide: fluorescein-HIEVRKELAEKMRR[pT]SVE
notes: LRRK2-derived peptide of the very C-terminus, phosphorylated at T2524; source: synthetic peptide (Peps4LS GmbH)
For B1, the binding result in assay [8], in [9], in assay [10], in assay [11], in [12] and in [13] was “binds” in each case.

A word on the Kd: it is a measure of binding affinity in units of concentration.
